We go through 9 molecules from patent US20220226340A1, “CASEIN KINASE 1 INHIBITORS FOR USE IN THE TREATMENT OF DISEASES RELATED TO DUX4 EXPRESSION SUCH AS MUSCULAR DYSTROPHY AND CANCER” (Facio Intellectual Property B.V., priority 2019, published 2022).

The target in one assay is p38α (Homo sapiens, UniProt Q16539). Briefly: p38α inhibition IC50. In kind it is biochemical.
The subject of the next assay is primary FSHD cells. Briefly: fusion index (myotube fusion) readout of the high-content assay in primary FSHD cells. In kind it is cell-based, human. Conditions: for effect on fusion index / myotube fusion: 72 h treatment, compound present during whole differentiation; for myotube formation in the presence of increasing concentrations of losmapimod: 72 h, CK1 inhibitor combined with losmapimod, microscopic images. An excerpt:
(§1) A quantitative assay readout was developed based on script-based image analysis. […] To analyse the images, an automated script was developed, enabling the detection of nuclei, myotube borders and DUX4 signals, with the script also detecting artefacts to reduce false positive signals. The script enabled multiple validated readouts including the number of DUX4 positive nuclei and nuclei clusters, the fusion index, myotube area, myotube width and myotube skeleton length (see FIG. 2). Additionally, the total nuclei count was included as a measure of cell loss or compound toxicity.
(§2) Compounds are administered either 15 h before fixation, resembling the original screening protocol, or 72 h before fixation (grey arrow). In the latter case, compounds are present during the whole differentiation process.

The next assay addresses CK1α (Homo sapiens, UniProt P48729). Briefly: CK1α inhibition IC50. Format: biochemical.
The test system of a further assay is pancreatic tumor cell. Conditions: in vitro and in vivo; cited from earlier work.
The target of a further assay is CK1δ (Homo sapiens, UniProt P48730). Briefly: CK1δ inhibition IC50. Format: biochemical.
The next assay addresses CK1ε (Homo sapiens, UniProt P49674). Briefly: CK1ε inhibition IC50. Format: biochemical.
The test system of assay [1] is DUX4. Briefly: high-content immunocytochemistry assay of endogenous DUX4 expression in differentiating primary FSHD myotubes. In kind it is cell-based, human. Conditions: for EC50: Homo sapiens, Myotube.
From the text: as §1
A compound library containing approximately 5000 annotated compounds was screened in the high-content assay. For this purpose, primary myoblasts were seeded in 384 well plates after which the growth medium was replaced with differentiation medium. After 3 days of differentiation, cells were treated with library compounds (in duplicate on different screening plates) for 15 h, after which they were fixed and stained with antibodies against DUX4, antibodies against myosin heavy chain (MHC), and with DAPI (4′,6-diamidino-2-phenylindole). Script-based analysis provided readouts for DUX4 expression (count of DUX4-positive nuclei or DUX4 intensity) and for potential toxicity (fusion index and nuclei count).
Compounds were incubated with primary FSHD cells for 15 hours, as indicated by the arrow in FIG. 4A.
as §2

For assay [2], the system named is DUX4. The conditions noted are these: immortalised differentiated myotube cultures; cited from earlier work.
The mark [3] stands for this setting: Table 7, p38 compounds, read-out: IC50 p38.
Where [4] appears, read: Table 7, p38 compounds, read-out: IC50 CK1a.
Setting [5] is: 72 h, Table 4, 72 h treatment protocol, read-out: DUX4 EC50.
Setting [6] is: 72 h, Table 6, 72 h treatment protocol, read-out: DUX4 EC50.

Where two headings read alike, the source gives them in different places. A value given as a limit tells only on which side of the number the result lay.

CK1α, sequence (P48729 whole entry): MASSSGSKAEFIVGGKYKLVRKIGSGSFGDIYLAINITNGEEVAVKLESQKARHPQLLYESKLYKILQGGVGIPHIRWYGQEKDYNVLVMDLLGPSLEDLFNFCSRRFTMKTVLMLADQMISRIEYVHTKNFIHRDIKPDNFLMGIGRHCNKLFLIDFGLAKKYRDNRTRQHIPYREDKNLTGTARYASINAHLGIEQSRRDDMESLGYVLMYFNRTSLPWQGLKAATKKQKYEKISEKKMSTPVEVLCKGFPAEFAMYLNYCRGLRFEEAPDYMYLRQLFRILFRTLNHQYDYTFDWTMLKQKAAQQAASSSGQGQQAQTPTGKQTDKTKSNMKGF
p38α, sequence (Q16539 whole entry, the tested form may be a part): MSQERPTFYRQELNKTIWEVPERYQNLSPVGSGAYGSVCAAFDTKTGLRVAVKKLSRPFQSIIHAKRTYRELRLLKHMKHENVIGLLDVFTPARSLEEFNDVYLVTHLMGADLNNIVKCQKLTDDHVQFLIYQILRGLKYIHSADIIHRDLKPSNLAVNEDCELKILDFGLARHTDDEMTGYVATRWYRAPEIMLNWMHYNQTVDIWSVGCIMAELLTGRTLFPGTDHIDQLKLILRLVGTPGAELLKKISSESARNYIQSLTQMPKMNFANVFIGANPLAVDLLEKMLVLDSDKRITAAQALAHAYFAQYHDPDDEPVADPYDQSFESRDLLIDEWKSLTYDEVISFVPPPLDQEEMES
CK1ε, sequence (P49674 whole entry): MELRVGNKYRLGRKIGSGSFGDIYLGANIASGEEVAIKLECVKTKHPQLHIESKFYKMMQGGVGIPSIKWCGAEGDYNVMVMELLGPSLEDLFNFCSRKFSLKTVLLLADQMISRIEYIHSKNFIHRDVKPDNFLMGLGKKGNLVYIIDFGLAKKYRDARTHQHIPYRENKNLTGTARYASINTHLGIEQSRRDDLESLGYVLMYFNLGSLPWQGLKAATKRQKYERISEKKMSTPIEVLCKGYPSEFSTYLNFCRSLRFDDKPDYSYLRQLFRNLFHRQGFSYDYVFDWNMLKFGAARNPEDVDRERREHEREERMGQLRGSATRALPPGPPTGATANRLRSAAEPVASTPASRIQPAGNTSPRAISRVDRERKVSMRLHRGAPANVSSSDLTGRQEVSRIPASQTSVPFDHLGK
CK1δ, sequence (P48730 whole entry): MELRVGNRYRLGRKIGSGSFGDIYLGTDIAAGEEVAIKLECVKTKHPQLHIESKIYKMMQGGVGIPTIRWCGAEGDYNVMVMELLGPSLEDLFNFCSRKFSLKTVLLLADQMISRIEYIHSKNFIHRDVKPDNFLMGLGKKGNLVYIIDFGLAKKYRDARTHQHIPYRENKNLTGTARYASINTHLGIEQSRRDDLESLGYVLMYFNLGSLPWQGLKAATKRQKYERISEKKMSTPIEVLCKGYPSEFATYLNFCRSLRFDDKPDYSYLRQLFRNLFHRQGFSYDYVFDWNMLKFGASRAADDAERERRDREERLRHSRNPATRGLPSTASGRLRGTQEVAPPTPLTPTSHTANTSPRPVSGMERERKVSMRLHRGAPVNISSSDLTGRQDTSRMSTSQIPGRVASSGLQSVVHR

As to `Cc1ccc(C(=O)NC2CC2)cc1-n1ncc(C(=O)c2cccc(C#N)c2)c1N` [Acumapimod, reference compound], the values for the half-inhibitory concentration (IC50) on p38α (setting [3]) and on CK1α (setting [4]) were 22 nM and > 10000 nM, respectively. Further, the “effect on fusion index / myotube fusion” value with primary FSHD cells is on record as “inhibited the fusion index”.
Turning to `COc1cc(OC)c(C=C2C(O)=Nc3ccccc32)c(OC)c1` [IC261], in the assay on pancreatic tumor cell, the “pancreatic tumor cell growth” value is listed as “reduces pancreatic tumor cell growth”.
In the case of `CC(C)(C)Cn1c(N)nc2ccc(-c3[nH]c(C(C)(C)C)nc3-c3ccc(F)cc3)nc21` [LY2228820, reference compound], the 50% inhibitory concentration (IC50) (as a rule, the concentration that inhibits the measured activity by half) was 14 nM at p38α (setting [3]); 2780 nM on CK1δ (Table 7, p38 compounds, read-out: IC50 CK1d); > 10000 nM at CK1α (setting [4]). Also, the “effect on fusion index / myotube fusion” value with primary FSHD cells was “inhibited the fusion index”.
Regarding `CC1(C)CN(c2ccc3nc(-c4ccc(F)cc4)c(-c4ccncc4)n3n2)CCN1` [Nr. 1], the half-inhibitory concentration (IC50) on p38α (Table 3, read-out: p38a IC50) is 13.2 nM; at p38α (Table 4, read-out: p38a IC50), 13.2 nM; on CK1δ (Table 3, read-out: CK1 d IC50) it was 18.5 nM; on CK1δ (Table 4, read-out: CK1 d IC50), 18.5 nM; at CK1δ (Table 6, read-out: IC50 CK1δ) it was 18 nM; on CK1ε (Table 3, read-out: CK1 e IC50), 12.4 nM. The IC50 on CK1ε (Table 4, read-out: CK1 e IC50) was 12.4 nM; at CK1α (Table 3, read-out: CK1 a IC50) it was 29.5 nM; on CK1α (Table 4, read-out: CK1 a IC50), 29.5 nM; on CK1α (Table 6, read-out: IC50 CK1α), 29 nM. The EC50 (commonly the concentration that produces a half-maximal response) was determined as 40 nM with DUX4 [1] (15 h, Table 3, 15 h treatment protocol, primary FSHD cells, read-out: EC50 for DUX4 repression); 40 nM in the assay on DUX4 [1] (setting [5]); 40 nM in the assay on DUX4 [1] (setting [6]).
On to `Cn1cc(-c2ccnc3c2C(=O)OC3)c(-c2ccc(F)cc2)n1` [Nr. 4], for which the IC50 at CK1δ (Table 6, read-out: IC50 CK1δ) was 33 nM; on CK1ε (Table 6, read-out: IC50 CK1ε) it was 52 nM. Also, the “myotube formation in the presence of increasing concentrations of losmapimod” value in the assay with primary FSHD cells is listed as “myotube formation is still intact”. For the same molecule, the EC50 in the assay with DUX4 [1] (setting [5]) and in the assay with DUX4 [1] (setting [6]) was 4800 nM in each case.
As for `CN1Cc2nccc(-c3cn(C)nc3-c3ccc(F)cc3)c2C1=O` [Nr. 5], the “myotube formation in the presence of increasing concentrations of losmapimod” value in the assay on primary FSHD cells is listed as “myotube formation is still intact”. Moreover, the EC50 is 1890 nM with DUX4 [1] (15 h, read-out: DUX4 EC50); 1900 to 3100 nM in the assay on DUX4 [1] (15 h, read-out: EC50 for DUX4 repression); 6700 nM with DUX4 [1] (72 h, read-out: DUX4 EC50).
As for `Fc1ccc(-c2nc3ccc(N4CCNCC4)nn3c2-c2ccncc2)cc1` [Nr. 8], the half-inhibitory concentration (IC50) came out at 15 nM on p38α (Table 6, read-out: IC50 p38α); 16 nM at CK1δ (Table 6, read-out: IC50 CK1δ); 9 nM at CK1ε (Table 6, read-out: IC50 CK1ε). Further, the “myotube formation in the presence of increasing concentrations of losmapimod” value in the assay on primary FSHD cells is recorded as “myotube formation is still intact”. In addition, the “effect on DUX4” value with DUX4 [1] (72 h treatment) is on record as “near maximal DUX4 inhibition”. Further, the EC50 in the assay on DUX4 [1] (setting [5]) is 10 to 60 nM; with DUX4 [1] (setting [6]) it was 10 nM.
Regarding `COc1cc(OC)c2c(=O)[nH]c(-c3cc(C)c(OCCO)c(C)c3)nc2c1` [RVX-208, reference compound], the “expression of DUX4” value in the assay on DUX4 [2] was “can inhibit the expression of DUX4”. Besides, the “effect on DUX4 expression” value in the assay on DUX4 [1] (irrespective of treatment time (15 h or 72 h)) is reported as “did not show any effect on DUX4 expression”.
As to `Cc1cc(F)ccc1-c1nc(NC(CO)CO)nc2c1ccc(=O)n2-c1c(F)cccc1F` [SB-681323, reference compound], the concentration for half-maximal inhibition (IC50) at p38α (setting [3]) is 11 nM; at CK1α (setting [4]), > 10000 nM. Also, the “effect on fusion index / myotube fusion” value in the assay on primary FSHD cells is given as “inhibited the fusion index”.
